From US12257247B2 (Monte Rosa Therapeutics AG, priority 2023, dated 2025)
Where two headings read alike, the source gives them in different places.

Target: T1, VAV1 (Homo sapiens, UniProt P15498+Q96SW2)
T1 construct: A heterozygous VAV1 C-terminal HiBiT knock-in pool was generated at Monte Rosa Therapeutics from a clonal Jurkat cell; endogenous in cells; host or cells: Jurkat clone stably expressing LgBiT, homozygous GSPT1-G575N; heterozygous VAV1-HiBiT knock-in pool
Assay: VAV1 degradation activity, VAV1-HiBiT knock-in Jurkat luminescence assay (Example A, Table 1)
Assay type: cell-based
Conditions: VAV1-HiBiT knock-in Jurkat cells; for Dmax: Jurkat
Procedure, shortened: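 Jurkat cells carrying VAV1-HiBiT knock-in, plated in RPMI/10% FBS with Endurazine live-cell substrate and pre-incubated ~16 h at 37° C. Compound dosed from 10 μM stock; luminescence read 6 and 24 h later. Response normalised to plate negative/positive controls, EC50 from 3-parameter logistic fit (hillslope 1).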

[1] = luminescence read at 6 and 24 hours, read-out: VAV1 Dmax %
[2] = luminescence read at 6 and 24 hours, read-out: VAV1 Dmax %, class
[3] = luminescence read at 6 and 24 hours, read-out: VAV1 DC50
[4] = luminescence read at 6 and 24 hours, read-out: VAV1 DC50 (nM), class
[5] = luminescence read at 6 and 24 hours after compound addition, read-out: VAV1 Dmax %
[6] = luminescence read at 6 and 24 hours after compound addition, read-out: VAV1 Dmax %, class
[7] = luminescence read at 6 and 24 hours after compound addition, read-out: VAV1 DC50
[8] = luminescence read at 6 and 24 hours after compound addition, read-out: VAV1 DC50 (nM), class

| Compound | Dmax [1] | Dmax [2] | DC50 [3] | DC50 [4] | Dmax [5] | Dmax [6] | DC50 [7] | DC50 [8] |
| --- | --- | --- | --- | --- | --- | --- | --- | --- |
| Cn1ccc(COc2ccc(-c3ccc(Cl)c(C4CCC(=O)NC4=O)c3F)cc2)n1 (stereo not shown) [Compound 145, 3-(4-chloro-2-fluoro-4′-((1-methyl-1H-pyrazol-3-yl)methoxy)-[1,1′-biphenyl]-3-yl)piperidine-2,6-dione] | 55.5% | < 60% | 13800 nM | > 1000 nM |  |  |  |  |
| O=C1CCC(c2cccc(-c3ccc(Cc4ncco4)nc3)c2Cl)C(=O)N1 (stereo not shown) [Compound 430, 3-(2-chloro-3-(6-(oxazol-2-ylmethyl)pyridin-3-yl)phenyl)piperidine-2,6-dione] | 72.6% | 60 to 90% | 261 nM | 100 to 1000 nM |  |  |  |  |
| O=C1CCC(c2cccc(-c3ccc(Cc4nccc(C5CC5)n4)cc3)c2Cl)C(=O)N1 (stereo not shown) [Compound 344, 3-(2-chloro-4′-((4-cyclopropylpyrimidin-2-yl)methyl)-[1,1′-biphenyl]-3-yl)piperidine-2,6-dione] | 98% | > 90% | 6.97 nM | ≤ 100 nM |  |  |  |  |
| O=C1CCC(c2cccc(-c3ccc(N4CCCC(F)(F)C4=O)cc3)c2Cl)C(=O)N1 (stereo not shown) [Compound 322] | 93.9% | > 90% | 17.7 nM | ≤ 100 nM |  |  |  |  |
| O=C1CCC(c2cccc(-c3ccc(N4C(=O)OCC45CC5)nc3)c2Cl)C(=O)N1 (stereo not shown) [Compound 356, 3-(2-chloro-3-(6-(5-oxo-6-oxa-4-azaspiro[2.4]heptan-4-yl)pyridin-3-yl)phenyl)piperidine-2,6-dione] | 86% | 60 to 90% | 71.4 nM | ≤ 100 nM |  |  |  |  |
| Cn1ccc(COc2ccc(-c3cccc(C4CCC(=O)NC4=O)c3)cc2)n1 (stereo not shown) [Compound 151, 3-(4′-((1-methyl-1H-pyrazol-3-yl)methoxy)-[1,1′-biphenyl]-3-yl)piperidine-2,6-dione] | 39.8% | < 60% | ≥ 10000 nM | > 1000 nM |  |  |  |  |
| Cn1ccc(COc2ccc(-c3ccc(Cl)c(C4CCC(=O)NC4=O)c3Cl)cc2)n1 (stereo not shown) [Compound 146, 3-(2,4-dichloro-4′-((1-methyl-1H-pyrazol-3-yl)methoxy)-[1,1′-biphenyl]-3-yl)piperidine-2,6-dione] | 81.5% | 60 to 90% | 8400 nM | > 1000 nM |  |  |  |  |
| N#Cc1ccc(-c2cccc(C3CCC(=O)NC3=O)c2Cl)cc1N (stereo not shown) [Compound 133] | 79% | 60 to 90% | 427 nM | 100 to 1000 nM |  |  |  |  |
| O=C1CCC(c2cccc(-c3ccc(OC4CCOC4)cc3)c2Cl)C(=O)N1 (stereo not shown) [Compound 109] | 66.4% | 60 to 90% | 678 nM | 100 to 1000 nM |  |  |  |  |
| Cn1cccc(N2CCc3cc(-c4cccc(C5CCC(=O)NC5=O)c4Cl)ccc32)c1=O (stereo not shown) [Compound 509, 3-(2-chloro-3-(1-(1-methyl-2-oxo-1,2-dihydropyridin-3-yl)indolin-5-yl)phenyl)piperidine-2,6-dione] |  |  |  |  | 97.8% | > 90% | 3.85 nM | ≤ 100 nM |
| O=C1CCC(c2cccc(-c3ccc(CN4CC(C(F)(F)F)OCC4=O)cc3)c2Cl)C(=O)N1 (stereo not shown) [Compound 258] | 94.5% | > 90% | 12.6 nM | ≤ 100 nM |  |  |  |  |
| Cc1c(-c2ccc(-n3ccccc3=O)cc2)cccc1C1CCC(=O)NC1=O (stereo not shown) [Compound 240, 3-[2-methyl-3-[4-(2-oxo-1-pyridyl)phenyl]phenyl]piperidine-2,6-dione] | 94.4% | > 90% | 77.1 nM | ≤ 100 nM |  |  |  |  |
| O=C1CCC(c2cccc(-c3ccc(N4CCCCC4)cc3)c2Cl)C(=O)N1 (stereo not shown) [Compound 459, 3-(2-chloro-4′-(piperidin-1-yl)-[1,1′-biphenyl]-3-yl)piperidine-2,6-dione] | 84.4% | 60 to 90% | 122 nM | 100 to 1000 nM |  |  |  |  |

The remaining lines, values ahead:

| Dmax [1] | Dmax [2] | DC50 [3] | DC50 [4] | Dmax [5] | Dmax [6] | DC50 [7] | DC50 [8] | Compound |
| --- | --- | --- | --- | --- | --- | --- | --- | --- |
| 91.4% | > 90% | 33.7 nM | ≤ 100 nM |  |  |  |  | Cc1ccn(Cc2ccc(-c3cccc(C4CCC(=O)NC4=O)c3Cl)cc2)c(=O)c1 (stereo not shown) [Compound 189, 3-(2-chloro-4′-((4-methyl-2-oxopyridin-1(2H)-yl)methyl)-[1,1′-biphenyl]-3-yl)piperidine-2,6-dione] |
| 73.2% | 60 to 90% | 98.9 nM | ≤ 100 nM |  |  |  |  | CN(C(=O)c1ccn(C)n1)c1ccc(-c2cccc(C3CCC(=O)NC3=O)c2Cl)cc1 (stereo not shown) [Compound 475, N-(2′-chloro-3′-(2,6-dioxopiperidin-3-yl)-[1,1′-biphenyl]-4-yl)-N, 1-dimethyl-1H-pyrazole-3-carboxamide] |
| 94.2% | > 90% | 9.75 nM | ≤ 100 nM |  |  |  |  | Cc1cccn(Cc2ccc(-c3cccc(C4CCC(=O)NC4=O)c3Cl)cc2)c1=O (stereo not shown) [Compound 187, 3-(2-chloro-4′-((3-methyl-2-oxopyridin-1(2H)-yl)methyl)-[1,1′-biphenyl]-3-yl)piperidine-2,6-dione] |
| 14% | < 60% | ≥ 10000 nM | > 1000 nM |  |  |  |  | O=C1CCC(c2cccc(-c3ccc(C4COC(=O)N4)cc3)c2Cl)C(=O)N1 (stereo not shown) [Compound 106] |
| 89.3% | 60 to 90% | 11.7 nM | ≤ 100 nM |  |  |  |  | O=C1CCC(c2cccc(-c3ccc(CCn4ccccc4=O)cc3)c2Cl)C(=O)N1 (stereo not shown) [Compound 182, 3-(2-chloro-4′-(2-(2-oxopyridin-1(2H)-yl)ethyl)-[1,1′-biphenyl]-3-yl)piperidine-2,6-dione] |
| 66.8% | 60 to 90% | 1280 nM | > 1000 nM |  |  |  |  | Cc1cc(-c2cccc(C3CCC(=O)NC3=O)c2Cl)ccc1-n1ccccc1=O (stereo not shown) [Compound 199, 3-(2-chloro-3′-methyl-4′-(2-oxopyridin-1(2H)-yl)-[1,1′-biphenyl]-3-yl)piperidine-2,6-dione] |
| 91% | > 90% | 127 nM | 100 to 1000 nM |  |  |  |  | O=C1CCC(c2cccc(-c3ccc(C(=O)n4cccc4)cc3)c2Cl)C(=O)N1 (stereo not shown) [Compound 222, 3-(2-chloro-4′-(1H-pyrrole-1-carbonyl)-[1,1′-biphenyl]-3-yl)piperidine-2,6-dione] |
| 90.5% | > 90% | 14.2 nM | ≤ 100 nM |  |  |  |  | C[C@@H]1COCC(=O)N1c1ccc(-c2cccc(C3CCC(=O)NC3=O)c2Cl)cc1 (stereo partly drawn) [Compound 441, 3-(2-chloro-4′-((R)-3-methyl-5-oxomorpholino)-[1,1′-biphenyl]-3-yl)piperidine-2,6-dione] |
| 96% | > 90% | 9.71 nM | ≤ 100 nM |  |  |  |  | O=C1CCC(c2cccc(-c3ccc(-n4cccc(F)c4=O)cc3)c2Cl)C(=O)N1 (stereo not shown) [Compound 218] |
| 97.1% | > 90% | 3.87 nM | ≤ 100 nM |  |  |  |  | O=C1CCC(c2cccc(-c3ccc(CC(=O)N4CCCC4)cc3)c2Cl)C(=O)N1 (stereo not shown) [Compound 235, 3-(2-chloro-4′-(2-oxo-2-(pyrrolidin-1-yl)ethyl)-[1,1′-biphenyl]-3-yl)piperidine-2,6-dione] |
| 48.9% | < 60% | 7400 nM | > 1000 nM |  |  |  |  | Cn1ccc(CCc2ccc(-c3cccc(C4CCC(=O)NC4=O)c3Cl)cn2)n1 (stereo not shown) [Compound 249, 3-(2-chloro-3-(6-(2-(1-methyl-1H-pyrazol-3-yl)ethyl)pyridin-3-yl)phenyl)piperidine-2,6-dione] |
| 96.8% | > 90% | 14.1 nM | ≤ 100 nM |  |  |  |  | O=C1CCC(c2cccc(-c3ccc(Nc4ccccn4)cc3)c2Cl)C(=O)N1 (stereo not shown) [Compound 215, 3-(2-chloro-4′-(pyridin-2-ylamino)-[1,1′-biphenyl]-3-yl)piperidine-2,6-dione] |
|  |  |  |  | 91% | > 90% | 17.2 nM | ≤ 100 nM | CN1CCc2cc(-c3cccc(C4CCC(=O)NC4=O)c3Cl)ccc21 (stereo not shown) [Compound 488, 3-(2-chloro-3-(1-methylindolin-5-yl)phenyl)piperidine-2,6-dione] |
| 96% | > 90% | 9.64 nM | ≤ 100 nM |  |  |  |  | O=C1CCC(c2cccc(-c3ccc(N4CC5CC5CC4=O)cc3)c2Cl)C(=O)N1 (stereo not shown) [Compound 307] |
| 98.8% | > 90% | 17.2 nM | ≤ 100 nM |  |  |  |  | O=C1CCC(c2cccc(-c3ccc(Cc4cccs4)cc3)c2Cl)C(=O)N1 (stereo not shown) [Compound 377, 3-(2-chloro-4′-(thiophen-2-ylmethyl)-[1,1′-biphenyl]-3-yl)piperidine-2,6-dione] |
| 80.8% | 60 to 90% | 104 nM | 100 to 1000 nM |  |  |  |  | O=C1CCC(c2cccc(-c3ccc(N4CC5CC5C4=O)cc3)c2Cl)C(=O)N1 (stereo not shown) [Compound 319] |
| 96.8% | > 90% | 13.6 nM | ≤ 100 nM |  |  |  |  | Cn1ccc2c1C(=O)N(Cc1ccc(-c3cccc(C4CCC(=O)NC4=O)c3Cl)cc1)CC2 (stereo not shown) [Compound 272] |
| 34.9% | < 60% | ≥ 10000 nM | > 1000 nM |  |  |  |  | CN(C)CCOc1ccc(-c2cccc(C3CCC(=O)NC3=O)c2Cl)cc1 (stereo not shown) [Compound 135] |
